Measurements reported in ChEMBL document CHEMBL3739373, “1,2,3-Triazole derivatives as antitubercular agents: synthesis, biological evaluation and molecular docking study” (Medchemcomm, 2015).
≈ marks a conversion by molar mass, not a printed value.

Experiments:
[1] = Selectivity index, ratio of GI50 for human PANC1 cells to MIC for dormant phase Mycobacterium tuberculosis H37Ra ATCC 25177; type: toxicity, cell-based, PANC-1; conditions: read-out: Selectivity Index
[2] = Cytotoxicity against human THP1 cells assessed as growth inhibition after 48 hrs by MTT assay; type: cell-based, THP-1; conditions: for GI50 at 48 h: THP1 cells; for GI90: thp-1, 48 h
[3] = Selectivity index, ratio of GI50 for human A549 cells to MIC for dormant phase Mycobacterium tuberculosis H37Ra ATCC 25177; type: toxicity, cell-based; conditions: read-out: Selectivity Index
[4] = Selectivity index, ratio of GI50 for human THP1 cells to MIC for dormant phase Mycobacterium tuberculosis H37Ra ATCC 25177; type: toxicity, cell-based, THP-1; conditions: read-out: Selectivity Index
[5] = test system: Mycobacterium tuberculosis; assay: Antitubercular activity against dormant phase Mycobacterium tuberculosis H37Ra ATCC 25177 incubated for 12 days by XTT reduction menadione assay; type: functional, organism-based; conditions: 288 h
[6] = test system: A549; assay: (§1) Cytotoxicity against human A549 cells assessed as growth inhibition after 48 hrs by MTT assay; type: cell-based; conditions: a549, 48 h
[7] = as §1; type: cell-based; conditions: A549 cells
[8] = Antioxidant activity assessed as DPPH radical scavenging activity after 30 mins by spectrophotometric analysis; type: physicochemical
[9] = Cytotoxicity against human PANC1 cells assessed as growth inhibition after 48 hrs by MTT assay; type: cell-based, PANC-1; conditions: for GI50 at 48 h: PANC1 cells; for GI90: panc-1, 48 h

For `Cc1cc(OCc2cn(Cc3ccc([N+](=O)[O-])cc3)nn2)ccc1Cl`, the selectivity ratio [1] was over 3.6, the GI50 at 48 h [2] was 27.9 µg/mL (≈ 77.8 µM) and the GI90 [2] was 84.3 µg/mL (≈ 235 µM). The selectivity ratio [3] was over 3.6, the selectivity ratio [4] was 1 and the IC50 [5] was 0.8 µg/mL (≈ 2.23 µM). It also gave an MIC [5] of 28.2 µg/mL (≈ 78.6 µM), a GI90 [6] of over 100 µg/mL and a GI50 at 48 h [7] of over 100 µg/mL. For the same compound, the IC50 [8] was 13.4 µg/mL (≈ 37.3 µM), the GI50 at 48 h [9] was over 100 µg/mL and the GI90 [9] was over 100 µg/mL.

With `Cc1ccc(OCc2cn(Cc3ccc(Cl)cc3)nn2)cc1` the selectivity ratio [1] was over 4.1, the GI50 at 48 h [2] was 74.1 µg/mL (≈ 236 µM) and the GI90 [2] was over 100 µg/mL. For the same compound, the selectivity ratio [3] was over 4.1, the selectivity ratio [4] was 3.1 and the IC50 [5] was 2.5 µg/mL (≈ 7.97 µM). It also gave an MIC [5] of 24.2 µg/mL (≈ 77.1 µM), a GI90 [6] of over 100 µg/mL and a GI50 at 48 h [7] of over 100 µg/mL. It also gave an IC50 [8] of 17.3 µg/mL (≈ 55.1 µM), a GI50 at 48 h [9] of over 100 µg/mL and a GI90 [9] of over 100 µg/mL.

With `Cc1ccc(OCc2cn(Cc3ccc([N+](=O)[O-])cc3)nn2)cc1` the selectivity ratio [1] was over 3.3, the GI50 at 48 h [2] was 14.2 µg/mL (≈ 43.8 µM) and the GI90 [2] was 66.4 µg/mL (≈ 205 µM). It also gave a selectivity ratio [3] of over 3.3, a selectivity ratio [4] of 0.5 and an IC50 [5] of 1.1 µg/mL (≈ 3.39 µM). The MIC [5] was 29.9 µg/mL (≈ 92.2 µM), the GI90 [6] was over 100 µg/mL and the GI50 at 48 h [7] was over 100 µg/mL. The IC50 [8] was 10.9 µg/mL (≈ 33.6 µM), the GI50 at 48 h [9] was over 100 µg/mL and the GI90 [9] was over 100 µg/mL.

In the case of `O=[N+]([O-])c1ccc(Cn2cc(COc3ccc(Cl)cc3)nn2)cc1`, the selectivity ratio [1] is reported as over 3.6, the GI50 at 48 h [2] is reported as 31.1 µg/mL (≈ 90.2 µM) and the GI90 [2] is reported as 88.9 µg/mL (≈ 258 µM). For the same compound, the selectivity ratio [3] was over 3.6, the selectivity ratio [4] was 1.1 and the IC50 [5] was 3.6 µg/mL (≈ 10.4 µM). The MIC [5] was 27.5 µg/mL (≈ 79.8 µM), the GI90 [6] was over 100 µg/mL and the GI50 at 48 h [7] was over 100 µg/mL. For the same compound, the IC50 [8] was 24.2 µg/mL (≈ 70.2 µM), the GI50 at 48 h [9] was over 100 µg/mL and the GI90 [9] was over 100 µg/mL.

Compound `O=[N+]([O-])c1cccc(Cn2cc(COc3ccc(Cl)cc3)nn2)c1` has a selectivity ratio [1] of over 3.4, a GI50 at 48 h [2] of 34.9 µg/mL (≈ 101 µM) and a GI90 [2] of 97.6 µg/mL (≈ 283 µM). For the same compound, the selectivity ratio [3] was over 3.4, the selectivity ratio [4] was 1.2 and the IC50 [5] was 2.6 µg/mL (≈ 7.54 µM). The MIC [5] was 29.2 µg/mL (≈ 84.7 µM), the GI90 [6] was over 100 µg/mL and the GI50 at 48 h [7] was over 100 µg/mL. It also gave an IC50 [8] of 21.3 µg/mL (≈ 61.8 µM), a GI50 at 48 h [9] of over 100 µg/mL and a GI90 [9] of over 100 µg/mL.

For `Clc1ccc(Cn2cc(COc3c(Cl)cc(Cl)cc3Cl)nn2)cc1`, the selectivity ratio [1] was over 12.9, the GI50 at 48 h [2] was 25.1 µg/mL (≈ 62.3 µM) and the GI90 [2] was over 100 µg/mL. It also gave a selectivity ratio [3] of over 12.9, a selectivity ratio [4] of 3.2 and an IC50 [5] of 0.8 µg/mL (≈ 1.98 µM). The MIC [5] was 7.7 µg/mL (≈ 19.1 µM), the GI90 [6] was over 100 µg/mL and the GI50 at 48 h [7] was over 100 µg/mL. It also gave an IC50 [8] of 27.2 µg/mL (≈ 67.5 µM), a GI50 at 48 h [9] of over 100 µg/mL and a GI90 [9] of over 100 µg/mL.

In the case of `Clc1ccc(Cn2cc(COc3ccccc3)nn2)cc1`, the selectivity ratio [1] is reported as over 3.3, the GI50 at 48 h [2] is reported as 36.4 µg/mL (≈ 121 µM) and the GI90 [2] is reported as over 100 µg/mL. It also gave a selectivity ratio [3] of over 3.3, a selectivity ratio [4] of 1.2 and an IC50 [5] of 3.5 µg/mL (≈ 11.7 µM). It also gave an MIC [5] of 29.9 µg/mL (≈ 99.7 µM), a GI90 [6] of over 100 µg/mL and a GI50 at 48 h [7] of over 100 µg/mL. The IC50 [8] was 26.1 µg/mL (≈ 87.1 µM), the GI50 at 48 h [9] was over 100 µg/mL and the GI90 [9] was over 100 µg/mL.

`Clc1cc(Cl)c(OCc2cn(Cc3ccc(Br)cc3)nn2)c(Cl)c1` showed a selectivity ratio [1] of over 3.6, a GI50 at 48 h [2] of 58.7 µg/mL (≈ 131 µM) and a GI90 [2] of over 100 µg/mL. It also gave a selectivity ratio [3] of over 3.6, a selectivity ratio [4] of 2.1 and an IC50 [5] of 0.9 µg/mL (≈ 2.01 µM). For the same compound, the MIC [5] was 27.8 µg/mL (≈ 62.1 µM), the GI90 [6] was over 100 µg/mL and the GI50 at 48 h [7] was over 100 µg/mL. For the same compound, the IC50 [8] was 14 µg/mL (≈ 31.3 µM), the GI50 at 48 h [9] was over 100 µg/mL and the GI90 [9] was over 100 µg/mL.

`O=[N+]([O-])c1ccc(Cn2cc(COc3ccccc3)nn2)cc1` gave a selectivity ratio [1] of over 3.6, a GI50 at 48 h [2] of 62.9 µg/mL (≈ 203 µM) and a GI90 [2] of over 100 µg/mL. It also gave a selectivity ratio [3] of over 3.6, a selectivity ratio [4] of 2.2 and an IC50 [5] of 1.7 µg/mL (≈ 5.48 µM). It also gave an MIC [5] of 28 µg/mL (≈ 90.2 µM), a GI90 [6] of over 100 µg/mL and a GI50 at 48 h [7] of over 100 µg/mL. It also gave an IC50 [8] of 10.1 µg/mL (≈ 32.5 µM), a GI50 at 48 h [9] of over 100 µg/mL and a GI90 [9] of over 100 µg/mL.

For `Brc1ccc(Cn2cc(COc3ccccc3)nn2)cc1`, the selectivity ratio [1] was over 3.5, the GI50 at 48 h [2] was 16.2 µg/mL (≈ 47.1 µM) and the GI90 [2] was 68.3 µg/mL (≈ 198 µM). It also gave a selectivity ratio [3] of over 3.5, a selectivity ratio [4] of 0.6 and an IC50 [5] of 3.2 µg/mL (≈ 9.3 µM). The MIC [5] was 28.9 µg/mL (≈ 84 µM), the GI90 [6] was over 100 µg/mL and the GI50 at 48 h [7] was over 100 µg/mL. For the same compound, the IC50 [8] was 18.3 µg/mL (≈ 53.2 µM), the GI50 at 48 h [9] was over 100 µg/mL and the GI90 [9] was over 100 µg/mL.

`Cc1ccc(OCc2cn(Cc3cccc(Cl)c3)nn2)cc1` showed a selectivity ratio [1] of over 3.5, a GI50 at 48 h [2] of 36.7 µg/mL (≈ 117 µM) and a GI90 [2] of 93.1 µg/mL (≈ 297 µM). The selectivity ratio [3] was over 3.5, the selectivity ratio [4] was 1.3 and the IC50 [5] was 3 µg/mL (≈ 9.56 µM). It also gave an MIC [5] of 28.9 µg/mL (≈ 92.1 µM), a GI90 [6] of over 100 µg/mL and a GI50 at 48 h [7] of over 100 µg/mL. It also gave an IC50 [8] of 16.3 µg/mL (≈ 51.9 µM), a GI50 at 48 h [9] of over 100 µg/mL and a GI90 [9] of over 100 µg/mL.

`Clc1ccc(OCc2cn(Cc3ccc(Br)cc3)nn2)cc1` gave a selectivity ratio [1] of over 17.3, a GI50 at 48 h [2] of 52.9 µg/mL (≈ 140 µM) and a GI90 [2] of over 100 µg/mL. It also gave a selectivity ratio [3] of over 17.3, a selectivity ratio [4] of 9.2 and an IC50 [5] of 0.5 µg/mL (≈ 1.32 µM). The MIC [5] was 5.8 µg/mL (≈ 15.3 µM), the GI90 [6] was over 100 µg/mL and the GI50 at 48 h [7] was over 100 µg/mL. The IC50 [8] was 11 µg/mL (≈ 29.1 µM), the GI50 at 48 h [9] was over 100 µg/mL and the GI90 [9] was over 100 µg/mL.

`Clc1ccc(Cn2cc(COc3ccc(Cl)cc3)nn2)cc1` gave a selectivity ratio [1] of over 12.2, a GI50 at 48 h [2] of 17.4 µg/mL (≈ 52.1 µM) and a GI90 [2] of 89.7 µg/mL (≈ 268 µM). For the same compound, the selectivity ratio [3] was over 12.2, the selectivity ratio [4] was 2.1 and the IC50 [5] was 0.7 µg/mL (≈ 2.09 µM). It also gave an MIC [5] of 8.2 µg/mL (≈ 24.5 µM), a GI90 [6] of over 100 µg/mL and a GI50 at 48 h [7] of over 100 µg/mL. It also gave an IC50 [8] of 26.1 µg/mL (≈ 78.1 µM), a GI50 at 48 h [9] of over 100 µg/mL and a GI90 [9] of over 100 µg/mL.

`Clc1cccc(Cn2cc(COc3ccccc3)nn2)c1` showed a selectivity ratio [1] of over 3.6, a GI50 at 48 h [2] of 14.6 µg/mL (≈ 48.7 µM) and a GI90 [2] of 54.3 µg/mL (≈ 181 µM). It also gave a selectivity ratio [3] of over 3.6, a selectivity ratio [4] of 0.5 and an IC50 [5] of 2.4 µg/mL (≈ 8.01 µM). The MIC [5] was 27.7 µg/mL (≈ 92.4 µM), the GI90 [6] was over 100 µg/mL and the GI50 at 48 h [7] was over 100 µg/mL. It also gave an IC50 [8] of 27.3 µg/mL (≈ 91.1 µM), a GI50 at 48 h [9] of over 100 µg/mL and a GI90 [9] of over 100 µg/mL.
